Like-named read-outs stand apart in the source and are kept apart here.
Legend:
ectopics = test: Conscious dogs with ligation of a coronary artery according to Harris: ectopics and convulsions; format: in vivo; conditions: for ED50 / ED90: Canis lupus familiaris; for ED50: read-out: Conscious dog Harris ligation Ectopics -50%; for ED90: read-out: Conscious dog Harris ligation Ectopics -90%
Excerpt: (§1) Male beagle dogs, 7-13 kg, undergo two days prior to the test a surgical ligation of a coronary artery. On the day of the test the conscious dog is secured in a canvas sling in a standing position and given increasing doses of the test compounds by intravenous administration. ECG, blood pressure etc are monitored and attention is paid to all CNS-effects. The dogs have almost 100 percent of ectopics prior to administration of the compound to be tested. Effects of the test drug on the frequency of ectopics are calculated from ECG. The accumulative end doses giving 50% and 90% reduction of ectopics as well as the ED50 values which give convulsions (side-effect) are measured and given below in Table 3. The value for convulsions is a mean value for 3-5 dogs.
(§2) x) The value given is the final value in a series of doses 0.5 + 1 + 2 + 4 + 8 mg/kg i.v. giving 50% reduction of ectopics. 30 min interval between doses.
(§3) Table 3: Antiarrythmic effect and CNS-effects of four β-receptor blockers, a membrane stabilizer, and ten new compounds with combined β-blocking and membrane stabilizing effect.

[1] = as above; format: in vivo; conditions: in vivo
Excerpt: as §1, §2, §3

[2] = test system: chloroform induced ventricular tachy-cardia; test: Alternative chloroform test on mice: ventricular tachycardia inhibition and ataxia; format: in vivo; conditions: for ED50: Mus musculus
Experimental: (§4) In an alternative chloroform test on mice the ventricular tachycardia inhibition by the test compounds are observed. Thereby the test solution is given subcutaneous and the animal is observed for CNS-effects for 20 min. The mouse is put into a chamber with chloroform until it stops breathing (approx 30 sec.). The animal is then secured on a cork-board and ECG is monitored. If the ventricular rythm is less than 520 beats per min., the animal was protected against ventricular tachycardia. Groups of 10 animals were tested for each dose-level'and the ED50-values have been calculated therefrom. During the test the side-effect ataxia (incordination of movements) is observed.
(§5) In Table 5, as shown, the new compounds tested exerted antiarrhythmic effects also in this te-st.

[3] = as above; format: in vivo; conditions: mouse, in vivo
Experimental: as §4, §5

[4] = test system: chloroform-induced ventricular arrhythmias; test: Chloroform-induced ventricular arrhythmias (fibrillation) in mice, intraperitoneal dose; conditions: for Number of Animals Dead / Number of Animals Protected: dose 100 mg/kg intraperitoneal, 10 treated; for Number of Animals Protected: protected against CHCl3-induced ventricular fibrillation; for Number of Animals Convulsive / Number of Animals LRR: mouse, in vivo, ip, 100 mg/kg
Excerpt: Mice were given an intraperitoneal dose of the test compound. Twenty minutes after dose, they were suffocated in chloroform vapor.- When the animals stopped breathing, the chest was opened to inspect for fibrillation. If the heart was not fibrillating, it was prodded.
Signs of CNS toxicity were noted during the 20-minute interval between dosing and challenge.
"Protected" means number of animals protected against CHC13- induced ventricular fibrillation.

[5] = test system: ouabain-induced arrhythmias; test: Ouabain-induced arrhythmias in anesthetized guinea-pigs; format: in vivo; conditions: for A-A EFFECT IN NUMBER OF ANIMALS: animals with antiarrhythmic effect / animals tested; for LOWEST FREQUENCY: frequency of ventricular premature beats after test solution; for ASYSTOLE: time of asystole under continued ouabain; for V-FIB: time of ventricular fibrillation under continued ouabain
Experimental: Guinea-pigs of either.sex (300-400 g) were anesthetized with urethane 1,4 g/kg i.p. and tracheotomized. ECG, lead II was picked up with needle electrodes and was registered continuously throughout the experiment. Two i.v. catheters were inserted: one for the administration of ouabain, the other for the test solution.
The experimental design for the study of antiarrhythmic activities is schematically shown in the head of Table 2. The arrhythmia was induced by automatic infusion of ouabain, 18 µg/kg/60" every two minutes for twelve minutes and thereafter 9 µg/kg/30" every two minutes throughout the whole experiment and the infusion was not stopped until asystole occurred. As soon as the frequency of ventricular premature beats (VPB) had passed 50 per cent, the test solution was given i.v. (0,2 ml/min) during 2 min. (see head of Table 2).

[6] = iv., accumulative end dose giving 50% reduction of ectopics
[7] = iv., accumulative end dose giving 90% reduction of ectopics
[8] = iv., conscious dog, mean value for 3-5 dogs, read-out: ED50 Convulsive
[9] = sc., mice, chloroform, groups of 10 animals per dose-level
[10] = sc., mice, observed for 20 min, read-out: Ataxia ED50

Q: With `COCCc1ccc(OCC(O)CNCCCCc2ccccc2)cc1` (stereo not drawn) [Ex. 11, 3-(4-phenylbutylamino)-1-[4-(2-methoxyethyl)phenoxy]-propanol--2] as the compound, how does the ED50 (ectopics; [6]) read?
A: 1 mg/kg

Q: And the ED90 (ectopics; [7])?
A: 2 mg/kg

Q: And the TD50 [1, 8]?
A: 8 mg/kg

Q: What about the ED50 [2, 9] of the same compound?
A: 15 mg/kg

Q: What about the TD50 at 20 min [3, 10] of the same compound?
A: > 50 mg/kg

Q: Which results are given for `COCCc1ccc(OCC(O)CNCCOc2ccccc2)cc1` (stereo not drawn) [Ex. 13, 3-[2-phenoxyethylamino]-1-[4-(2-methoxyethyl)phenoxy]-propanol--2]?
A: ED50 (ectopics; [6]): 4 mg/kg; ED90 (ectopics; [7]): 4 mg/kg; TD50 [1, 8]: 8 mg/kg; ED50 [2, 9]: 3 mg/kg; TD50 at 20 min [3, 10]: > 12 mg/kg

Q: What does the source list for `COCCc1ccc(OCC(O)CNCCc2ccccc2)cc1` (stereo not drawn) [Ex. 14, 3-(2-phenethylamino)-1-[4-(2-methoxyethyl)phenoxy]-propanol-2]?
A: ED50 Convulsive (ectopics; dog, in vivo, iv): 6 to 8 mg/kg; Conscious dog Harris ligation Ectopics -50% (ectopics; [6]): 1 mg/kg; Conscious dog Harris ligation Ectopics -90% (ectopics; [7]): 2 mg/kg; Ataxia ED50 ([2]; mouse, in vivo, sc, 20 min): 40 mg/kg; Ventricular tachy-cardia inhibition ED50 [2, 9]: 10 mg/kg

Q: With `COCCc1ccc(OCC(O)CNCCCCc2ccc(OC)c(OC)c2)cc1` (stereo not drawn) [Ex. 15] as the compound, how does the ED50 (ectopics; [6]) read?
A: 1 mg/kg

Q: What about the ED90 (ectopics; [7]) of the same compound?
A: 4 mg/kg

Q: What about the TD50 ([1]; dog, iv) of the same compound?
A: 6 mg/kg

Q: And the ED50 [2, 9]?
A: 1.2 mg/kg

Q: What about the TD50 at 20 min ([3]; sc) of the same compound?
A: > 6.3 mg/kg

Q: Which “Number of Animals Dead” value [4] does the source give for `CCN(CC)CC(=O)Nc1c(C)cccc1C` [Lidocaine] here?
A: 0

Q: What about the “Number of Animals Protected” value [4] of the same compound?
A: 5

Q: What about the “Number of Animals Convulsive” value [4] of the same compound?
A: 10

Q: And the “Number of Animals LRR” value [4]?
A: 10

Q: What about the “A-A EFFECT IN NUMBER OF ANIMALS” value ([5]; dose 4.0 mg/kg i.v.) of the same compound?
A: 5/5

Q: And the “A-A EFFECT IN NUMBER OF ANIMALS” value ([5]; dose 12.0 mg/kg i.v.)?
A: 5/6

Q: What about the “LOWEST FREQUENCY” value ([5]; dose 4.0 mg/kg i.v.) of the same compound?
A: 10±1%

Q: And the “LOWEST FREQUENCY” value ([5]; dose 12.0 mg/kg i.v.)?
A: 5±3%

Q: And the ASYSTOLE ([5]; dose 4.0 mg/kg i.v.)?
A: 21 ± 1 min

Q: And the ASYSTOLE ([5]; dose 12.0 mg/kg i.v.)?
A: 30 ± 3 min

Q: What about the V-FIB ([5]; dose 4.0 mg/kg i.v.) of the same compound?
A: 15 ± 2 min

Q: What about the V-FIB ([5]; dose 12.0 mg/kg i.v.) of the same compound?
A: 22 ± 3 min

Q: Which results are given for `COCCc1ccc(OCC(O)CNC(C)C)cc1` (stereo not drawn) [Metoprolol]?
A: ED50 (ectopics; [6]): 4 mg/kg; ED90 (ectopics; [7]): 8 mg/kg; TD50 ([1]; dog, iv): > 8 mg/kg; A-A EFFECT IN NUMBER OF ANIMALS ([5]; dose 0.03 mg/kg i.v.): 6/6; A-A EFFECT IN NUMBER OF ANIMALS ([5]; dose 0.1 mg/kg i.v.): 6/6; A-A EFFECT IN NUMBER OF ANIMALS ([5]; dose 0.3 mg/kg i.v.): 6/6; LOWEST FREQUENCY ([5]; dose 0.03 mg/kg i.v.): 34±5%; LOWEST FREQUENCY ([5]; dose 0.1 mg/kg i.v.): 16±7%; LOWEST FREQUENCY ([5]; dose 0.3 mg/kg i.v.): 1±1%; ASYSTOLE ([5]; dose 0.03 mg/kg i.v.): 35 ± 4 min; ASYSTOLE ([5]; dose 0.1 mg/kg i.v.): 38 ± 5 min; ASYSTOLE ([5]; dose 0.3 mg/kg i.v.): 48 ± 6 min; V-FIB ([5]; dose 0.03 mg/kg i.v.): 25 ± 3 min; V-FIB ([5]; dose 0.1 mg/kg i.v.): 32 ± 5 min; V-FIB ([5]; dose 0.3 mg/kg i.v.): 37 ± 3 min; ED50 [2, 9]: 2.6 mg/kg; TD50 at 20 min ([3]; sc): > 50 mg/kg

Q: What does the source list for `COC(=O)NCCc1ccc(OCC(O)CNC(C)C)cc1` (stereo not drawn) [Pamatolol]?
A: Number of Animals Dead [4]: 0; Number of Animals Protected [4]: 5; Number of Animals Convulsive [4]: 0; Number of Animals LRR [4]: 0

Q: Which ED50 (ectopics; [6]) does the source give for `CC(=O)Nc1ccc(OCC(O)CNC(C)C)cc1` (stereo not drawn) [Practolol, reference compound] here?
A: > 16 mg/kg

Q: What about the ED90 (ectopics; [7]) of the same compound?
A: > 16 mg/kg

Q: What about the TD50 [1, 8] of the same compound?
A: > 16 mg/kg

Q: What about the ED50 [2, 9] of the same compound?
A: 2 mg/kg

Q: And the TD50 at 20 min [3, 10]?
A: > 50 mg/kg

Q: What does the source list for `Cc1cccc(C)c1NC(=O)C(C)N` (stereo not drawn) [Tocainide, reference compound]?
A: ED50 (ectopics; [6]): 4 mg/kg; ED90 (ectopics; [7]): 8 mg/kg; TD50 ([1]; dog, iv): > 8 mg/kg; ED50 [2, 9]: 90 mg/kg; TD50 at 20 min ([3]; sc): 130 mg/kg
